Test results from PubChem BioAssay AID1918942 (Molecular Pharmacology Branch, DTP, NCI, 2023).

System: 743489-274-T-PDC complex spheroid viability
Test: Anticancer human tumor 743489-274-T-PDC patient-derived renal cell carcinoma cell line growth inhibition
Conditions: for IC50: curve of first compound; for viability, T/C: stronger effect = lower value
Outline: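 Complex spheroids of tumor cells with HUVEC and human MSCs, exposed to iadademstat combined with other agents. Each agent tested in half-log steps from near clinical Cmax (else 10 microM top), DMSO ≤0.25%.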

[1] = second compound 0.1 µM, first compound 0.0316 µM
[2] = second compound 0.1 µM, first compound 0.1 µM
[3] = second compound 0.1 µM, first compound 0.316 µM
[4] = second compound 0.1 µM, first compound 1 µM
[5] = second compound 0.1 µM, first compound 3.16 µM
[6] = second compound 0.1 µM, first compound 10 µM
[7] = second compound 0.316 µM, first compound 0.0316 µM
[8] = second compound 0.316 µM, first compound 0.1 µM
[9] = second compound 0.316 µM, first compound 0.316 µM
[10] = second compound 0.316 µM, first compound 1 µM
[11] = second compound 0.316 µM, first compound 3.16 µM
[12] = second compound 0.316 µM, first compound 10 µM
[13] = second compound 1 µM, first compound 0.0316 µM
[14] = second compound 1 µM, first compound 0.1 µM
[15] = second compound 1 µM, first compound 0.316 µM
[16] = second compound 1 µM, first compound 1 µM
[17] = second compound 1 µM, first compound 3.16 µM
[18] = second compound 1 µM, first compound 10 µM
[19] = second compound 3.16 µM, first compound 0.0316 µM
[20] = second compound 3.16 µM, first compound 0.1 µM
[21] = second compound 3.16 µM, first compound 0.316 µM
[22] = second compound 3.16 µM, first compound 1 µM
[23] = second compound 3.16 µM, first compound 3.16 µM
[24] = second compound 3.16 µM, first compound 10 µM
[25] = second compound 10 µM, first compound 0.0316 µM
[26] = second compound 10 µM, first compound 0.1 µM
[27] = second compound 10 µM, first compound 0.316 µM
[28] = second compound 10 µM, first compound 1 µM
[29] = second compound 10 µM, first compound 3.16 µM
[30] = second compound 10 µM, first compound 10 µM
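Also: spheroids exposed to compounds for 7 days before readout.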
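For viability, T/C in this document: 100% = DMSO vehicle control wells.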

Structure (SMILES)	IC50 (second compound 0.1 µM) [nM]	IC50 (second compound 0.316 µM) [nM]	IC50 (second compound 1 µM) [nM]	IC50 (second compound 3.16 µM) [nM]	IC50 (second compound 10 µM) [nM]	viability, T/C [1] [%]	viability, T/C [2] [%]	viability, T/C [3] [%]	viability, T/C [4] [%]	viability, T/C [7] [%]	viability, T/C [8] [%]	viability, T/C [9] [%]	viability, T/C [10] [%]	viability, T/C [13] [%]	viability, T/C [14] [%]	viability, T/C [15] [%]	viability, T/C [16] [%]	viability, T/C [19] [%]	viability, T/C [20] [%]	viability, T/C [21] [%]	other results
CC(C)c1c(-c2ccccc2)nc2c(C#N)c[nH]n2c1=O + NC1CC1c1ccc(-c2cccc(O)c2)cc1	> 10000	> 10000	> 10000	> 10000	> 10000	110	112	131	105	104	107	134	100	110	117	108	116	106	108	114	viability, T/C [5]: 113%; viability, T/C [6]: 109%; viability, T/C [11]: 115%; viability, T/C [12]: 102%; viability, T/C [17]: 108%; viability, T/C [18]: 114%; viability, T/C [22]: 111%; viability, T/C [23]: 105%; viability, T/C [24]: 124%; viability, T/C [25]: 130%; viability, T/C [26]: 105%; viability, T/C [27]: 116%; viability, T/C [28]: 102%; viability, T/C [29]: 106%; viability, T/C [30]: 109%
CC1COCCN1c1cc(-c2ccnn2C)c2ccnc(-c3ccn[nH]3)c2n1 (stereo not given) + NC1CC1c1ccc(-c2cccc(O)c2)cc1	448	> 1000	716	540	518	85.2	62.9	51.2	44.3	85.5	65.5	64.5	51.9	82.5	68.9	64.7	44.5	83.8	75.6	55.5	viability, T/C (second compound 0.1 µM, first compound 0.00316 µM): 109%; viability, T/C (second compound 0.1 µM, first compound 0.01 µM): 88%; viability, T/C (second compound 0.316 µM, first compound 0.00316 µM): 111%; viability, T/C (second compound 0.316 µM, first compound 0.01 µM): 104%; viability, T/C (second compound 1 µM, first compound 0.00316 µM): 98.2%; viability, T/C (second compound 1 µM, first compound 0.01 µM): 103%; viability, T/C (second compound 3.16 µM, first compound 0.00316 µM): 101%; viability, T/C (second compound 3.16 µM, first compound 0.01 µM): 90.6%; viability, T/C [22]: 41.5%; viability, T/C (second compound 10 µM, first compound 0.00316 µM): 90.8%; viability, T/C (second compound 10 µM, first compound 0.01 µM): 98.1%; viability, T/C [25]: 80%; viability, T/C [26]: 75%; viability, T/C [27]: 53.7%; viability, T/C [28]: 43.6%
COc1ccc([C@@H](O)c2cc(-c3ncnc4cc(N5CCOCC5)ccc34)c(F)cc2Cl)nn1 + NC1CC1c1ccc(-c2cccc(O)c2)cc1	643	979	833	611	918	101	93.6	63	38.6	99.7	92.7	68.8	57.4	94.3	93	80.2	43.4	93.6	94.4	59.4	viability, T/C [5]: 31.9%; viability, T/C [6]: 15.4%; viability, T/C [11]: 24.1%; viability, T/C [12]: 32%; viability, T/C [17]: 25%; viability, T/C [18]: 16.8%; viability, T/C [22]: 41.2%; viability, T/C [23]: 27.5%; viability, T/C [24]: 17.4%; viability, T/C [25]: 99.1%; viability, T/C [26]: 111%; viability, T/C [27]: 74.3%; viability, T/C [28]: 49.5%; viability, T/C [29]: 27.1%; viability, T/C [30]: 16.6%
